From patent publication US20260001849A1, “NOVEL B0AT1 INHIBITOR” (MITSUBISHI TANABE PHARMA CORPORATION, priority 2023, published 2026)
Like-named read-outs stand apart in the source and are kept apart here.

Tests used:
hERG channel = molecular target: T1, hERG channel (Homo sapiens, UniProt Q12809); assay: hERG channel inhibitory activity, whole-cell patch clamp (auto-patch clamp system); type: cell-based; details: read-out: hERG IC50
T1 construct: host or cells: CHO cells
Description: Evaluation of hERG (Human Ether-a-go-go Related Gene) Channel Inhibitory Activity
The hERG channel inhibitory activity of the compound of the present invention was measured using CHO cells (B′ SYS GmbH) forcibly expressing hERG channels involved in human rapidly active delayed rectifier potassium current (IKr) by the whole-cell patch clamp method using an auto-patch clamp system (SyncroPatch384PE).
Cell suspension, extracellular fluid, intracellular fluid, and measurement plate (NPC-384 plate) were placed in the auto-patch clamp system, and hERG current measurements were performed using the whole-cell patch clamp method. The voltage protocol was set to a holding potential of −80 mV, with a depolarizing pulse preceded by −90 mV (100 ms) and followed by −80 mV (100 ms).
The depolarizing pulse was […] (500 ms), and then the hERG peak current value obtained during the ramp phase was measured when the voltage was lowered to −80 mV over 100 ms. The protocol was applied at 5-second intervals for 5 minutes for each concentration.
SyncroPatch software (manufactured by Nanion) was used for data analysis. Four concentrations were applied incrementally for each test substance, and the average hERG Peak current value obtained from the last three stimuli of each applied concentration was used as the evaluation data. The IC50 value was calculated from the inhibition rate of the current at each concentration of each test substance relative to the pre-application value using Hill's equation (Hill equation) using the relevant software.
The same experiments were also performed using the example compounds described in WO 2023/145804 as comparative example compounds 1-4.

Human BOAT1 = molecular target: T2, Human BOAT1 (Homo sapiens, UniProt Q695T7); assay: hBOAT1 inhibitory test (phenylalanine uptake); type: cell-based; details: Human BOAT1 stable expression CHO cells, phenylalanine 0.25 mM, read-out: hB0AT1 IC50
T2 construct: expressed in transfected cells
T2 sequence (Q695T7 1-634): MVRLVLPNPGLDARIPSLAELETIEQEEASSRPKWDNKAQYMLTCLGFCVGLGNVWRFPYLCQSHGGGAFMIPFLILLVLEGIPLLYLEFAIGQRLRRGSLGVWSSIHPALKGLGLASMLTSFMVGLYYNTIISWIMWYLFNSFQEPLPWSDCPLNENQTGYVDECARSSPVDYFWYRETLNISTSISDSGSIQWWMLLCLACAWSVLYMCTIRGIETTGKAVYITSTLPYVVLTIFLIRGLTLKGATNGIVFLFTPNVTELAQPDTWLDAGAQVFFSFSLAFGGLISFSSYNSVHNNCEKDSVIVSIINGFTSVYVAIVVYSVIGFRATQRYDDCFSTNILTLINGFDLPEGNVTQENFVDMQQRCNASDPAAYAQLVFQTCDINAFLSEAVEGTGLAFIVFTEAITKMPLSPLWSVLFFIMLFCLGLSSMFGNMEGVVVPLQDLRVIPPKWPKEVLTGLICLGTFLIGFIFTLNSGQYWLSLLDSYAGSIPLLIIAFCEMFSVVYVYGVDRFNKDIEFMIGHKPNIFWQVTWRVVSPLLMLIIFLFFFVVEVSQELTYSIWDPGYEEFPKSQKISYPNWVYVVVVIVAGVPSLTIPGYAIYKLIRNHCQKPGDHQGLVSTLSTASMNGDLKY
In short: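 Human BOAT1 stably expressed in CHO cells (75000 cells/well) in HEPES-buffered NaCl/KCl/CaCl2/MgCl2 buffer with 0.01% BSA, compound at 0.5% DMSO, preincubated ≥30 min at ordinary temperature. Uptake of L-phenylalanine plus [3H]-L-phenylalanine (0.25 mM final) read by scintillation proximity; 100–200 min values analysed, non-specific uptake defined with […] reference inhibitor.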

[1] = [3H]-L-phenylalanine uptake, radioactivity after 100 to 200 min

T1 sequence (Q12809 whole entry): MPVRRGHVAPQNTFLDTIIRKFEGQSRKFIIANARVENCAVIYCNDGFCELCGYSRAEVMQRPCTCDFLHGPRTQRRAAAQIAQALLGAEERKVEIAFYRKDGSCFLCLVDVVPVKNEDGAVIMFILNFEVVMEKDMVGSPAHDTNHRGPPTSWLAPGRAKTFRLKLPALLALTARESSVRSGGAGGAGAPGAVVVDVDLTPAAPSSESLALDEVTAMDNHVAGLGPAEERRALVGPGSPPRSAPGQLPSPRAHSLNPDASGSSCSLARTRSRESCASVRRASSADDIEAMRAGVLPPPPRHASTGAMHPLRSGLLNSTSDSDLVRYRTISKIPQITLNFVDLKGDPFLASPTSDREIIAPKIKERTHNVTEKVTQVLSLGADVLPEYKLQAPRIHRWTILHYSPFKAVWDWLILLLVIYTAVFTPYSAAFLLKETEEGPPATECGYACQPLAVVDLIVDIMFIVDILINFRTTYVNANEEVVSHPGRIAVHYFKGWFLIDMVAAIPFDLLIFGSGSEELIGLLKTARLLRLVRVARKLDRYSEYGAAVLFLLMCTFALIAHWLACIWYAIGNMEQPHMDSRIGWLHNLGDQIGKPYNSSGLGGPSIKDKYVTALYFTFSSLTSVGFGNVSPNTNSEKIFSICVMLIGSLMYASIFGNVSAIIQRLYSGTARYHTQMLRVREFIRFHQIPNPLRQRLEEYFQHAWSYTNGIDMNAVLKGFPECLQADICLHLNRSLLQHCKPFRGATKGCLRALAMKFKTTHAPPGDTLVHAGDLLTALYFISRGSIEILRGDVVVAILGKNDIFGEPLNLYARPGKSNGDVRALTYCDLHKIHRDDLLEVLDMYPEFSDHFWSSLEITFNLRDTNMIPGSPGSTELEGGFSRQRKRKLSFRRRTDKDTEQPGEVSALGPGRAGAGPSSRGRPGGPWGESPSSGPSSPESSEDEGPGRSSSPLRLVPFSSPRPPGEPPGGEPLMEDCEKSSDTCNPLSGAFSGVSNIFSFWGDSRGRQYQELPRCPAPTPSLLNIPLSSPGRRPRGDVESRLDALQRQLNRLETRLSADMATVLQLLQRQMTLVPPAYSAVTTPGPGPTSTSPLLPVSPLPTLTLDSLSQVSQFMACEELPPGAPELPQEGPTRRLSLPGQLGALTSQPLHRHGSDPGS

Row | SMILES | IC50 (hERG channel) [nM] | IC50 (Human BOAT1; phenylalanine uptake) [nM] | IC50 (Human BOAT1; [1]) [nM]
1 | O=C(/C=C/c1ccc(C(F)(F)F)cc1)NCC(=O)N1CCc2cc([C@@H]3C[C@H]3C(=O)O)ccc2C1 (single isomer, unassigned) [I-288, (1R*,2R*)-2-[2-[2-[[(E)-3-[4-(trifluoromethyl)phenyl]prop-2-enoyl]amino]acetyl]-3,4-dihydro-1H-isoquinolin-6-yl]cyclopropane-1-carboxylic acid] | > 30000 | 152 | –
2 | O=C(/C=C/c1ccc(C(F)(F)F)cc1)NCC(=O)N1CCc2cc([C@@H]3C[C@H]3C(=O)O)ccc2C1 (single isomer, unassigned) [I-289, (1R*,2R*)-2-[2-[2-[[(E)-3-[4-(trifluoromethyl)phenyl]prop-2-enoyl]amino]acetyl]-3,4-dihydro-1H-isoquinolin-6-yl]cyclopropane-1-carboxylic acid] | > 30000 | 87 | –
3 | O=C(O)CCCN1CCN(C(=O)CNC(=O)/C=C/c2ccc(C(F)(F)F)cc2F)C(c2ccccc2)C1 (single isomer, unassigned) [I-290, 4-[4-[2-[[(E)-3-[2-fluoro-4-(trifluoromethyl)phenyl]prop-2-enoyl]amino]acetyl]-3-phenylpiperazin-1-yl]butanoic acid] | > 30000 | 119 | –
4 | O=C(O)Cc1cc(Cl)c2c(c1)CCN(C(=O)CNC(=O)/C=C/c1ccc(C(F)(F)F)cc1F)C2 [I-141] | > 30000 | – | 34
5 | O=C(O)Cc1cc(F)c2c(c1)CCN(C(=O)CNC(=O)/C=C/c1ccc(C(F)(F)F)cc1)C2 [I-143] | > 30000 | – | 151
6 | O=C(O)Cc1cc(Cl)c2c(c1)CCN(C(=O)CNC(=O)/C=C/c1ccc(C(F)(F)F)cc1)C2 [I-145] | > 30000 | – | 86
7 | O=C(O)Cc1ccc2c(c1Cl)CCN(C(=O)CNC(=O)/C=C/c1ccc(C(F)(F)F)cc1)C2 [I-146] | 29900 | – | 67
8 | N#Cc1cc(CC(=O)O)cc2c1CN(C(=O)CNC(=O)/C=C/c1ccc(C(F)(F)F)cc1F)CC2 [I-147] | > 30000 | – | 100
9 | N#Cc1cc(CC(=O)O)cc2c1CN(C(=O)CNC(=O)/C=C/c1ccc(C(F)(F)F)cc1)CC2 [I-148] | > 30000 | – | 207
10 | Cc1cc(CC(=O)O)cc2c1CN(C(=O)CNC(=O)/C=C/c1ccc(C(F)(F)F)cc1)CC2 [I-149] | > 30000 | – | 132
11 | N#Cc1c(CC(=O)O)ccc2c1CCN(C(=O)CNC(=O)/C=C/c1ccc(C(F)(F)F)cc1)C2 [I-150] | 24900 | – | 182
12 | N#Cc1c(CC(=O)O)ccc2c1CCN(C(=O)CNC(=O)/C=C/c1ccc(C(F)(F)F)cc1F)C2 [I-151] | > 30000 | – | 57
13 | O=C(O)CCc1nn2c(c1Br)CN(C(=O)CNC(=O)/C=C/c1ccc(S(F)(F)(F)(F)F)cc1)CC2 [I-153] | > 30000 | – | 146
14 | N#Cc1cc(CC(=O)O)cc2c1CN(C(=O)CNC(=O)/C=C/c1ccc(I)cc1F)CC2 [I-157] | > 30000 | – | 102
15 | O=C(O)Cc1ccc2c(c1)CCN(C(=O)CNC(=O)/C=C/c1ccc(I)cc1F)C2 [I-158] | > 30000 | – | 83
16 | O=C(O)Cc1ccc2c(c1F)CCN(C(=O)CNC(=O)/C=C/c1ccc(C(F)(F)F)cc1)C2 [I-162] | > 30000 | – | 141
17 | O=C(/C=C/c1ccc(C(F)(F)F)cc1)NCC(=O)N1CCc2cc(N3CCC(C(=O)O)CC3)ncc2C1 [I-173] | > 30000 | – | 477
18 | O=C(O)CCc1ccc2c(c1)CCN(C(=O)CNC(=O)/C=C/c1ccc(C(F)(F)F)cc1)C2 [I-174] | > 30000 | – | 149
19 | O=C(O)Cc1cc2c(cc1F)CN(C(=O)CNC(=O)/C=C/c1ccc(C(F)(F)F)cc1)CC2 [I-180] | > 30000 | – | 122
20 | O=C(O)Cc1ccc2c(c1)CCN(C(=O)CNC(=O)/C=C/c1ccc(C(F)(F)F)cc1)C2 [I-182] | > 30000 | – | 85
21 | O=C(O)Cc1ccc2c(c1)CCN(C(=O)CNC(=O)/C=C/c1ccc(I)cc1)C2 [I-183] | > 30000 | – | 46
